How the values were obtained:
neocortical slices = assay: Field potential recordings of epileptiform activity in neocortical slices; type: cell-based, rat
Description: Brain slices for the in vitro experiments were prepared by means of standard techniques (Ivens et al., 2007; Pavlovsky et al., 2003; Seiffert et al., 2004). Slices were transferred to a recording chamber where they were incubated in aCSF containing BSA (6.7 mg/ml), TGF-β1 (10 ng/ml) or artificial serum (aSerum, composition based on aCSF with the following changes, composition in mM: 0.8 MgSO4, 1.3 CaCl2, 5.7 KCl, 1 L-glutamine, 0.1 albumin). To block the activity of TGF-β1, slices were incubated in aCSF containing SB431542 (10 μM) before the addition of TGF-β1 (10 ng/ml). To block TGF-βRs, slices were incubated in aCSF containing SB431542 (10 μM) and TGF-βRII antibody (10 μg/ml) for 30 min followed by incubation in BSA in the presence of TGF-βR blockers. For detection of epileptiform activity, field potentials were recorded >4 h following incubation in cortical layer IV using extracellular glass microelectrodes (˜3 MΩ) in response to bipolar stimulation at the border of white and grey matter.
To assess the hypothesis that activation of the TGF-β signaling pathway is the mechanism underlying albumin-induced epileptogenesis, we activated this pathway directly by incubating neocortical slices with TGF-β1 (10 ng/mL) in artificial cerebrospinal fluid (aCSF) and performed electrophysiological recordings. These recordings were compared to those of slices treated with a solution containing serum levels of electrolytes and 0.1 mM albumin (aSERUM, previously shown to induce epileptogenesis; Ivens et al., 2007), albumin in aCSF, or aCSF (control). […] When albumin was added to the control aCSF solution, epileptiform activity was recorded in response to stimulation of the white matter (n=8 out of 12 slices, 6 animals). Importantly. TGF-β1 treatment was sufficient to recapitulate epileptiform activity similar to that seen following treatment with aSERUM and albumin in aCSF (n=5 out of 5 slices, 4 animals; n=7 out of 9 slices, 3 animals; and n=8 out of 12 slices, 6 animals, respectively). In all three cases, the evoked epileptiform activity, was all-or-none in nature, paroxysmal and prolonged, similar to that seen following BBB opening with bile salts (Ivens et al., 2007; Seiffert et al., 2004) and typical to that observed in acute models of epilepsy (Gutnick et al., 1982).
To further confirm that the TGF-β1 induced epileptiform activity was dependent on the TGF-βR mediated pathway, we performed additional trials of the above experiments in the presence of two TGF-βR blockers (SB431542, the TGF-βRI kinase activity inhibitor and TGF-βRII antibody).

[1] = system: albumin-induced epileptogenesis; assay: EEG recording from awake rats during albumin-induced epileptogenesis; type: in vivo, rat
[2] = during albumin-induced epileptogenesis

“albumin: bovine serum albumin, used to induce epileptogenesis” was tested, and the “integral of the field potential” value (neocortical slices; inducer alone, without TGF-βR blockers) was 117.2±35.4 mV*ms, the “evoked epileptiform activity in response to stimulation of the white matter, slices showing it” value (neocortical slices; slices incubated with the inducer) was 8 out of 12 and the “EEG complexity (fractal dimension)” value [1, 2] was “decrease”. For the same substance, the EEG signal harmony [1, 2] was “increase” and the “number of seizure like events (SLEs)” value ([1]; one week following treatment) was “sharp increase”.
